Measured values published in publication PMC7228129, “Evaluation of Developmental Toxicity, Developmental Neurotoxicity, and Tissue Dose in Zebrafish Exposed to GenX and Other PFAS” (Environmental Health Perspectives, 2020).
Entries after “also recorded” stand apart in the source; their conditions may differ. Like-named read-outs stand apart in the source and are kept apart here.

What was measured:
zebrafish [1] = experiment: Developmental toxicity (DevTox) assay; format: in vivo, Danio rerio; conditions: for Developmental toxicity outcome / EC50: scored 6 dpf; for DevTox assay phenotype: Table 5 summary, this study (some rows also list literature); for EC50: Hill fit
Method: (§1) At 0 dpf, zebrafish embryos were bleached as previously described ([Tal et al. 2017]). A single embryo at the dome-to-epiboly stages ([Kimmel et al. 1995]) was placed into each individual well of a 96-well plate containing a 40-μm nylon mesh filter (Millipore, Catalog No. MANMN4010) with 400μL of 10% Hanks’ balanced salt solution (HBSS) per well. Filter inserts containing zebrafish embryos were transferred to 96-well culture trays (Millipore, Catalog No. MAMCS9610) containing 250μL of 10% HBSS ([Westerfield 2007]) and 1μL of 250× working solutions per well. A final concentration of 0.4% DMSO was used for all exposure groups and as a vehicle control. In the case of GenX Free Acid in Study 2 (Figure 1), DI water was used as a vehicle control. Daily, from 1–5 dpf, plates underwent 100% media changes to refresh chemical dosing solutions by blotting (Brandel; Catalog No. FPXLR-196) and transferring mesh inserts containing zebrafish to new bottom plates (Millipore; Catalog No. MAMCS9610). To minimize evaporation, plates were sealed (Biorad; Catalog No. MSA5001) and wrapped with parafilm. Plates were maintained on a 14 h:10 h light cycle at 26.0°C and scored daily for death, malformations, hatching, and swim bladder inflation. At 6 dpf, plates were evaluated by two independent observers and DevTox or DNT assays were performed or media and tissue were collected for analytical chemistry analyses as described below.
In Study 1 (Figure 1), zebrafish were exposed, as described in the “Chemical Exposures” section, to 0.04, 0.1, 0.4, 1.1, 3.1, 9.3, 27.2, or 80.0μM PFOS, PFOA, PFHxS, PFHxA, or ADONA, or 0.4% DMSO. Six 96-well plates were tested with a single chemical concentration included on each microtiter plate. Subsequently, as part of Study 1, zebrafish were exposed to 0.04, 0.1, 0.4, 1.1, 3.1, 9.3, 27.2, or 80.0μM PFESA1, or 0.4% DMSO. In Study 2, GenX Free Acid diluted in DI water was tested by exposing zebrafish to 0.04, 0.1, 0.4, 1.1, 3.1, 9.3, 27.2, or 80.0μM of the compound or DI water. […] Zebrafish were exposed to 1.7, 3.1, 5.5, 9.8, 17.6, 31.4, 56.0, or 100.0μM of PFBS, PFHxS, PFHpS, or PFOS or 0.4% DMSO. Subsequently, zebrafish were exposed to 1.7, 3.1, 5.5, 9.8, 17.6, 31.4, 56.0, or 100.0μM PFPeS, or 0.4% DMSO. Chlorpyrifos was used as positive control for malformations ( 8.0μM ) and lethality ( 80.0μM ) ([Padilla et al. 2012]; [Tal et al. 2017]). To conduct DevTox assay assessments, at 6 dpf, two independent observers evaluated zebrafish larvae for survival, hatching, swim bladder inflation, and malformations, including curved body axis, shortened trunk, pericardial edema, yolk sac edema, necrotic yolk sac, pectoral fin abnormalities and head/jaw abnormalities. Directly after assessments, data were reviewed and, in the case of discrepancies, consensus calls were reached. Toxicity values were assigned to descriptive data (i.e., normal=0 , abnormal=20 , severely abnormal=50 , and dead=100 ), modified from a previously described approach ([Padilla et al. 2012]). Briefly, animals with a single malformation were scored as abnormal, whereas animals with ≥2 malformations were scored as severely abnormal.
For the DevTox assay, a Kruskal-Wallace nonparametric one-way analysis of variance (ANOVA) with a Dunn’s multiple comparison test was used to detect differences between exposure groups (* p<0.05 , ** p<0.0001 ) and LOEC values were determined. If a test for linear trend was significant ( p<0.05 ), with developmental toxicity observed at the highest concentration tested, nonlinear regression was performed with a Hill slope curve fitting for half maximal effective concentration ( EC50 ) value determinations.

zebrafish [2] = experiment: Developmental neurotoxicity (DNT) assay, light/dark locomotor behavior test; format: in vivo, Danio rerio; conditions: for Developmental neurotoxicity / locomotor activity outcome / Concentration causing hyperactivity in D1 period / Concentration causing hyperactivity in D2 period / Concentration causing hyperactivity in L2 period / Concentration causing hyperactivity in L1 period: tested 6 dpf; for DNT assay phenotype: Table 5 summary, this study (some rows also list literature); for Concentration causing hyperactivity in D1 period: dark 1; for Concentration causing hyperactivity in D1 period / Concentration causing hyperactivity in D2 period / Concentration causing hyperactivity in L2 period / Concentration causing hyperactivity in L1 period: daily 0–5 dpf, vs 0.4% DMSO; for Concentration causing hyperactivity in D2 period: dark 2; for Concentration causing hyperactivity in L2 period: light 2
Method: as §1
To increase the likelihood of observing behavioral effects in morphologically normal larvae, the highest concentration evaluated in the DNT assay was the lowest observed effect concentration (LOEC) determined in DevTox assay. Zebrafish were exposed in parallel to 4.4, 7.9, 14.0, 25.1, 44.8, or 80.0μM PFOA, PFHxS, PFHxA, or ADONA or 0.2, 0.3, 0.6, 1.0, 1.8, or 3.1μM PFOS or 0.4% DMSO. Subsequently, as part of Study 1, exposure to 4.4, 7.9, 14.0, 25.1, 44.8, or 80.0μM PFESA1, or 0.4% DMSO was evaluated. In Study 2, zebrafish were exposed to 4.4, 7.9, 14.0, 25.1, 44.8, or 80.0μM GenX Free Acid, or DI water. In Study 3, to increase the likelihood of observing malformations with shorter-chain compounds at multiple test concentrations, the highest concentration evaluated was 100.0μM . Zebrafish were exposed to 5.5, 9.8, 17.6, 31.4, 56.0, or 100.0μM PFBS; 3.1, 5.5, 9.8, 17.6, 31.4, or 56.0μM PFHxS; 1.7, 3.1, 5.5, 9.8, 17.6, or 31.4μM PFHpS; or 0.5, 1.0, 1.7, 3.1, 5.5, or 9.8μM PFOS, or 0.4% DMSO. Subsequently, as part of Study 3, zebrafish were exposed to 3.1, 5.5, 9.8, 17.6, 31.4, or 56.0μM PFPeS, or 0.4% DMSO. Chemical exposures and assessments were performed daily, as described above. To evaluate swimming behavior in a light/dark behavior test, microtiter plates were placed in a dark, temperature-controlled behavior testing room set to 26.0°C for at least 2 h prior to testing. At the time of testing, microtiter plates were placed on a Noldus tracking apparatus. Locomotor activity was recorded (30 frames/s) for a total of 60 min consisting of a 20-min dark acclimation period (0 lux) that was not analyzed followed by a 40-min testing period consisting of a 20-min light period (5.0 lux) and 20-min dark period (0 lux). Videos were analyzed using Ethovision software (version 3.1; Noldus Information Technology) as previously described ([Jarema et al. 2015]). Locomotor activity was collected for each individual fish for each 2-min period (minimum distance moved, set to 0.135cm ). Thus, for a 40-min test, 20 data points were collected per larvae. […] Four additional criteria for inclusion of individual larvae were applied. One, all larvae that were identified as abnormal, severely abnormal, or dead were excluded. Two, larvae with uninflated swim bladders were removed from analyses. Three, individual larvae that moved <2cm in either […] dark period were removed.

zebrafish [3] = conditions: Table 5 summary, cited from earlier work
[4] = Study 1, 0.04–80.0 μM daily 0–5 dpf, 0.4% DMSO
[5] = Study 1, 4.4–80.0 μM daily 0–5 dpf, 0.4% DMSO
[6] = Danio rerio, Study 1, 0.04–80.0 μM daily 0–5 dpf, 0.4% DMSO
[7] = Danio rerio, Study 3, 1.7–100.0 μM daily 0–5 dpf, 0.4% DMSO
[8] = Study 1, light 1 (first 10 min light)

SMILES	Developmental toxicity outcome (zebrafish [1]; [4])	DevTox assay phenotype (zebrafish [1])	Developmental neurotoxicity / locomotor activity outcome (zebrafish [2]; [5])	DNT assay phenotype (zebrafish [2])	Developmental toxicity outcome (zebrafish [1]; Study 2, 0.04–80.0 μM in DI water daily 0–5 dpf)	Developmental neurotoxicity / locomotor activity outcome (zebrafish [2]; Study 2, 4.4–80.0 μM in DI water daily 0–5 dpf)	Concentration causing hyperactivity in D1 period (zebrafish [2]; Study 1) [µM]	Concentration causing hyperactivity in D2 period (zebrafish [2]; Study 1) [µM]	Concentration causing hyperactivity in L2 period (zebrafish [2]; Study 1) [µM]	EC50 (zebrafish [1]; [6]) [µM]	EC50 (zebrafish [1]; [7]) [µM]	Concentration causing hyperactivity in L1 period (zebrafish [2]; [8]) [µM]	Concentration causing hyperactivity in D1 period (zebrafish [2]; Study 3) [µM]	Concentration causing hyperactivity in D2 period (zebrafish [2]; Study 3)	Concentration causing hyperactivity in L2 period (zebrafish [2]; Study 3) [µM]	DNT assay phenotype (zebrafish [3]; ref Khezri et al. 2017)	DNT assay phenotype (zebrafish [3]; ref Ulhaq et al. 2013b)	EC50 (zebrafish [1]; [4]) [µM]	EC50 (zebrafish [1]; Study 3, 1.7–100.0 μM daily 0–5 dpf, 0.4% DMSO) [µM]	Concentration causing hyperactivity in L1 period (zebrafish [2]; Study 3, light 1) [µM]
O=C(O)C(F)(F)C(F)OC(F)(F)C(F)(F)C(F)(F)OC(F)(F)F (centres unmarked) [ADONA, 4,8-Dioxa-3H-perfluorononanoate]	did not cause concentration-dependent effects on survival or development; also recorded: failed to provoke developmental toxicity or developmental neurotoxicity; also recorded: negative	Negative^a	did not exhibit differences in locomotor activity; also recorded: failed to provoke developmental toxicity or developmental neurotoxicity; also recorded: negative	Negative^a	–	–	–	–	–	–	–	–	–	–	–	–	–	–	–	–
O=C(O)C(F)(OC(F)(F)C(F)(F)C(F)(F)F)C(F)(F)F (centres unmarked) [GenX Free Acid, Perfluoro-2-propoxypropanoic acid]	–	Negative^a	–	Negative^a	negative; also recorded: failed to provoke developmental toxicity or developmental neurotoxicity	negative; also recorded: failed to provoke developmental toxicity or developmental neurotoxicity	–	–	–	–	–	–	–	–	–	–	–	–	–	–
O=S(=O)(O)C(F)(F)C(F)(F)OC(F)(C(F)(F)F)C(F)(F)OC(F)=C(F)F (centres unmarked) [PFESA1, Perfluoro-3,6-dioxa-4-methyl-7-octene-1-sulfonic acid]	did not cause concentration-dependent effects on survival or development; also recorded: failed to provoke developmental toxicity or developmental neurotoxicity; also recorded: negative	Negative^a	did not exhibit differences in locomotor activity; also recorded: failed to provoke developmental toxicity or developmental neurotoxicity; also recorded: negative	Negative^a	–	–	–	–	–	–	–	–	–	–	–	–	–	–	–	–
O=C(O)C(F)(F)C(F)(F)C(F)(F)C(F)(F)C(F)(F)F [PFHxA, Perfluorohexanoic acid]	did not cause concentration-dependent effects on survival or development; also recorded: no observed developmental toxicity identified at the highest concentration tested	Negative	hyperactivity in the L2, D1, and D2 periods	Hyperactivity^a	–	–	14.0 to 25.1	14.0 to 25.1	25.1	–	–	–	–	–	–	–	–	–	–	–
O=S(=O)(O)C(F)(F)C(F)(F)C(F)(F)C(F)(F)C(F)(F)C(F)(F)F [PFHxS, Perfluorohexanesulfonic acid]	same morphological phenotypes as PFOS	Positive	–	Hyperactivity^a	–	–	–	–	14.0	92.7	228	14.0 to 25.1	17.6	17.6 µM	17.6 to 31.4	Negative	–	–	–	–
O=C(O)C(F)(F)C(F)(F)C(F)(F)C(F)(F)C(F)(F)C(F)(F)C(F)(F)F [PFOA, Perfluoro-n-octanoic acid]	did not cause concentration-dependent effects on survival or development; also recorded: negative	Negative	did not exhibit differences in locomotor activity; also recorded: negative	Negative	–	–	–	–	–	–	–	–	–	–	–	–	Hyperactivity	–	–	–
O=S(=O)(O)C(F)(F)C(F)(F)C(F)(F)C(F)(F)C(F)(F)C(F)(F)C(F)(F)C(F)(F)F [PFOS, Perfluorooctanesulfonic acid]	failed swim bladder inflation and ventroflexion of the tail	Positive	–	Hyperactivity	–	–	0.6 to 1.8	–	0.6 to 1.8	7.5	28.2	1.0	1.0	no effect	1.7 to 3.1	–	Hypoactivity	7.54	28.2	1.7 to 3.1
